Earlier results on six substances are cited in PMC10608500 (Marine Drugs, 2023).

Where two headings read alike, the source gives them in different places.

The conditions of series [1]: Table 1.
For series [2], the system named is CCRF-CEM human T lymphoblast cells. Also noted: method as in PMID 34986303. The note with it: read-out: IC50 against CCRF-CEM cells.
In series [3] the test system is U937 human histiocytic lymphoma cells. Also noted: method as in PMID 34986303. As to conditions: read-out: IC50 against U937 cells.
[4] abbreviates: from Oscillatoria agardhii, ref Murakami, M et al. 21.
The mark [5] stands for this setting: from Oscillatoria sp., ref Li, T et al. 20.

In the case of heptavalinamide A, the Activities entry in series [1] (from Symploca sp., ref Suo, R et. al. 19) is “cytotoxic”.

For the substance prenylagaramide B, the Activities entry in series [1] (setting [4]) was “no biological activity”.

For the substance sepiatocin, the Activities entry in series [1] (from Sepia officinalis, ref Henry, J et al. 22) is listed as “muscle contractile activity modulator (sepiatocin)”.

For the substance prenylagaramide A, the Activities entry in series [1] (setting [4]) is reported as “no biological activity”.

The IC50 is the concentration at which inhibition is half-maximal. As for amantamide A, the IC50 in series [2] was 8.3 µM; in series [3] it was 6.1 µM. The Activities entry in series [1] (setting [5]) is “CXCR7 agonist, cytotoxic”.

As for amantamide B, the half-maximal inhibitory concentration (IC50) in series [2] was 5.6 µM; in series [3], 7.3 µM. Further, the Activities entry in series [1] (setting [5]) is reported as “CXCR7 agonist, cytotoxic”.
